Test results from ChEMBL document CHEMBL4177611, “Discovery of aminocyclohexene analogues as selective and orally bioavailable hNav1.7 inhibitors for analgesia” (Bioorg Med Chem Lett, 2017).

Key:
[1] = Plasma concentration in Sprague-Dawley rat spinal nerve ligation model at 100 mg/kg administered as single dose via oral gavage measured after 1 hr by LC-MS/MS analysis; format: ADME, organism-based
[2] = Half life in Sprague-Dawley rat at 10 mg/kg administered as single dose via oral gavage by LC-MS/MS analysis; format: ADME, organism-based; details: in vivo
[3] = Volume of distribution at steady state in Sprague-Dawley rat administered as single iv bolus by LC-MS/MS analysis; format: ADME, organism-based; details: in vivo, read-out: Vdss
[4] = Unbound plasma concentration in Sprague-Dawley rat spinal nerve ligation model at 100 mg/kg administered as single dose via oral gavage measured after 1 hr by LC-MS/MS analysis; format: ADME, organism-based; details: in vivo
Cytochrome P450 1A2 = target: T1, Cytochrome P450 1A2 (Homo sapiens, UniProt P05177)
T1 sequence (P05177 whole entry): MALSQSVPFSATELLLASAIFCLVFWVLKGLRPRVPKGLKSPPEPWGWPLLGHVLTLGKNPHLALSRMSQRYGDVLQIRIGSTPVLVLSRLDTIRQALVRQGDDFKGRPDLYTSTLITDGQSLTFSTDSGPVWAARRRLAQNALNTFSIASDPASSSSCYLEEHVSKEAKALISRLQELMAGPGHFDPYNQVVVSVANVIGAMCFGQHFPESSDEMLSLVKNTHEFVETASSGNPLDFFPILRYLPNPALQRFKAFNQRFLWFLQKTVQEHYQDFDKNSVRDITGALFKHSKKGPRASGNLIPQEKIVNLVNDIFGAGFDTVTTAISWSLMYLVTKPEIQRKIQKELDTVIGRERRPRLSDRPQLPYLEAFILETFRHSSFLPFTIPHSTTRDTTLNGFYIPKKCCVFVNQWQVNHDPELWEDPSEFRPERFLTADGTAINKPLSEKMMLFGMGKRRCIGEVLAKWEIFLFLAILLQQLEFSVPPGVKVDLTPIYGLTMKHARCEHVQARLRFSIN

[5] = Drug metabolism in human liver microsomes assessed as dealkylation by measuring M1 metabolite formation at 10 uM measured up to 60 mins in presence of NADPH by LC-MS analysis relative to total metabolite peak area; format: ADME, microsome; details: 1 h
[6] = Unbound plasma concentration in Sprague-Dawley rat spinal nerve ligation model at 100 mg/kg administered as single dose via oral gavage measured after 2 hrs by LC-MS/MS analysis; format: ADME, organism-based; details: in vivo
[7] = Drug metabolism in Sprague-Dawley rat dorsal root ganglion assessed as 4-(((1R,6R)-6-amino-2-(4-fluorophenyl)cyclohex-2-enyl)methoxy)-5-chloro-2-fluoro-N-(thiazol-4-yl)benzenesulfonamide formation at 100 mg/kg, ig measured after 1.5 hrs by LC-MS/MS analysis; format: ADME, organism-based; details: in vivo, po

concentration at 1 h [1]: 8.48 µM
half-life [2]: 2.56 h
Vd [3]: 4.65 L/kg
Cp(f) [4]: 0.297 µM
IC50 (Cytochrome P450 1A2): > 50 µM
Drug metabolism [5]: Metabolite_Detected
Cp(f) [6]: 0.262 µM
Drug metabolism [7]: 0.5 µM/g
Compound: CCN[C@@H]1CCC=C(c2ccc(F)cc2)[C@H]1COc1cc(F)c(S(=O)(=O)Nc2cscn2)cc1Cl.Cl
